Measured values: publication PMC7836466, “Putative ligand binding sites of two functionally characterized bark beetle odorant receptors” (BMC Biology, 2021)

Assays:
ItypOR46 [1] = molecular target: T1, ItypOR46 (Ips typographus, UniProt A0A7L8XZ66); test: two-electrode voltage clamp dose-response in Xenopus oocytes (secondary response; not significant in HEK cells); type: cell-based
T1 construct: with ItypOrco
T1 sequence (A0A7L8XZ66 1-408): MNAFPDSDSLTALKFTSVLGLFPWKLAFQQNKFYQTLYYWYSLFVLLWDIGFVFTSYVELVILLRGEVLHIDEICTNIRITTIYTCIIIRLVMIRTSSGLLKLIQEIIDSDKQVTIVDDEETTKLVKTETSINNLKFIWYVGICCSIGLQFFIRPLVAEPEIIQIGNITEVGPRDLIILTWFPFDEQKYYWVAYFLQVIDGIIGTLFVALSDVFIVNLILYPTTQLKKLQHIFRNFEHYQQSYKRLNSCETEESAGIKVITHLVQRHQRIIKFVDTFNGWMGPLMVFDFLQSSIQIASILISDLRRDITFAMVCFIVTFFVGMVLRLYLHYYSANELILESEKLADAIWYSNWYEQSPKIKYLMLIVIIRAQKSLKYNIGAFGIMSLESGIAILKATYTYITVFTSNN

ItypOR49 = molecular target: T2, ItypOR49 (Ips typographus, UniProt A0A7L8XYT4); test: calcium fluorescence dose-response in TREx/HEK293 cells; type: cell-based
T2 construct: gene OR49; full-length, N-terminal V5 tag; with ItypOrco
T2 sequence (A0A7L8XYT4 1-406): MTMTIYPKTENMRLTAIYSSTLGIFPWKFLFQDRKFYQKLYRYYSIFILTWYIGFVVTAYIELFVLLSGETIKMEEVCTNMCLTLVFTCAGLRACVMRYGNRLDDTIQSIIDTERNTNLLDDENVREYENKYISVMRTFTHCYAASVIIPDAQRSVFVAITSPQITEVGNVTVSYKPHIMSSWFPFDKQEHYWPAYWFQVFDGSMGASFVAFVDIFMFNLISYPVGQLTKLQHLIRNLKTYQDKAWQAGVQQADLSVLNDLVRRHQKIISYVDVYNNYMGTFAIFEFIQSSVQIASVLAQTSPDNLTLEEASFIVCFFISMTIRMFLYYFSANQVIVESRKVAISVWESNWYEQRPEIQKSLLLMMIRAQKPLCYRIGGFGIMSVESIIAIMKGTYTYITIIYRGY
T2 sequence (A0A7L8XYY7 1-480 partner): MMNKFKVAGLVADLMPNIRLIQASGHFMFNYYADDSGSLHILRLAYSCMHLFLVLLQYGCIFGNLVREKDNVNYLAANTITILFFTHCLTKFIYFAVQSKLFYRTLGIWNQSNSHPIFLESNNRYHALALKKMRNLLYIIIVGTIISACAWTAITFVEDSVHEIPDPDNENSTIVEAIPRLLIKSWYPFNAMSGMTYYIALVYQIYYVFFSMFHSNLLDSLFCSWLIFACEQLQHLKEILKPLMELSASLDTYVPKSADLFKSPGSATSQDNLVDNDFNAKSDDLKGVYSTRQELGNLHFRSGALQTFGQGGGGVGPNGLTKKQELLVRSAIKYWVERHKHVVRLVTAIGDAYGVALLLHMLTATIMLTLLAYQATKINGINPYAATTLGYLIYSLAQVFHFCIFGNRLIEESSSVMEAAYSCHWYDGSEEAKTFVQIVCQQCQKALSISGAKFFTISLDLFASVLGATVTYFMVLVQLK

ItypOR46 [2] = test system: T3, ItypOR46; test: calcium fluorescence assay in TREx/HEK293 cells; also Xenopus oocyte two-electrode voltage clamp; site-directed mutagenesis; type: cell-based, Ips typographus
T3 construct: gene OR46; full-length, N-terminal V5 tag; with ItypOrco

ItypOrco = molecular target: T4, ItypOrco (Ips typographus, UniProt A0A7L8XYY7); test: calcium fluorescence dose-response in TREx/HEK293 cells expressing only ItypOrco; type: cell-based
T4 construct: full-length, N-terminal c-Myc tag
T4 sequence (A0A7L8XYY7 1-480): T2 sequence (A0A7L8XYY7 1-480 partner)

## C=CC(=C)C[C@@H](O)C=C(C)C [(R)-(−)-ipsdienol]
ItypOR46 [1]
  two-electrode voltage clamp dose-response in Xenopus oocytes (secondary response): secondary response of ItypOR46 to racemic ipsdienol is mainly triggered by the (R)-(−)-enantiomer
ItypOR49
  EC50: 9.47 µM

## C=CC(=C)C[C@@H](O)CC(C)C [(S)-(−)-ipsenol]
ItypOR46 [2]
  EC50: 1980 nM

## CCc1ccc(NC(=O)CSc2nnc(-c3cccnc3)n2CC)cc1 [VUAA1]
ItypOrco
  EC50: 24.5 µM
